Tests used:
Type in all cases: in vivo
[1] = test system: field violet (Viola arvensis); experiment: Test C postemergence, plant response rating; settings: for Field Violet plant response rating: scale 0 to 100 (0 no effect, 100 complete control)
How it was run: (§1)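 Visual injury score, 0 = no effect, 100 = complete control, assigned against untreated controls after 13 to 15 d in the greenhouse. Compounds were applied in a surfactant-containing non-phytotoxic solvent mix, preemergence to seeded loam/sand or silt loam soil, or postemergence to 1- to 4-leaf plants (2 to 18 cm).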

[2] = test system: field poppy (Papaver rhoeas); experiment: Test C postemergence, plant response rating; settings: for Field Poppy plant response rating: scale 0 to 100 (0 no effect, 100 complete control)
How it was run: as §1

[3] = test system: surinam grass (Brachiaria decumbens); experiment: Test C postemergence, plant response rating
How it was run: as §1

[4] = test system: wild poinsettia (Euphorbia heterophylla); experiment: Test C postemergence, plant response rating; settings: for Poinsettia, Wild plant response rating: scale 0 to 100 (0 no effect, 100 complete control)
How it was run: as §1

[5] = test system: nightshade (eastern black nightshade, Solanum ptycanthum); experiment: Test C postemergence, plant response rating; settings: for Nightshade plant response rating: scale 0 to 100 (0 no effect, 100 complete control)
How it was run: as §1

[6] = test system: pigweed, palmer (palmer pigweed, Amaranthus palmeri); experiment: Test C postemergence, plant response rating; settings: for Pigweed, Palmer plant response rating: scale 0 to 100 (0 no effect, 100 complete control)
How it was run: as §1

[7] = test system: buckwheat, wild (wild buckwheat, Polygonum convolvulus); experiment: Test C postemergence, plant response rating; settings: for Buckwheat, Wild plant response rating: scale 0 to 100 (0 no effect, 100 complete control)
How it was run: as §1

[8] = test system: wild mustard (Sinapis arvensis); experiment: Test C postemergence, plant response rating; settings: for Mustard, Wild plant response rating: scale 0 to 100 (0 no effect, 100 complete control)
How it was run: as §1

[9] = test system: Canada thistle (Cirsium arvense); experiment: Test C postemergence, plant response rating; settings: for Canada Thistle plant response rating: scale 0 to 100 (0 no effect, 100 complete control)
How it was run: as §1

[10] = test system: geranium, cutleaf (cutleaf geranium, Geranium dissectum); experiment: Test C postemergence, plant response rating; settings: for Geranium, Cutleaf plant response rating: scale 0 to 100 (0 no effect, 100 complete control)
How it was run: as §1

[11] = test system: speedwell (bird's-eye speedwell, Veronica persica); experiment: Test C postemergence, plant response rating; settings: for Speedwell plant response rating: scale 0 to 100 (0 no effect, 100 complete control)
How it was run: as §1

[12] = test system: windgrass (Apera spica-venti); experiment: Test C postemergence, plant response rating
How it was run: as §1

[13] = test system: johnsongrass (Sorghum halepense); experiment: Test C postemergence, plant response rating; settings: for Johnsongrass plant response rating: scale 0 to 100 (0 no effect, 100 complete control)
How it was run: as §1

[14] = test system: johnsongrass (Sorghum halepense); experiment: Test C preemergence, plant response rating
[15] = test system: wild poinsettia (Euphorbia heterophylla); experiment: Test C preemergence, plant response rating
[16] = test system: nightshade (eastern black nightshade, Solanum ptycanthum); experiment: Test C preemergence, plant response rating
[17] = test system: windgrass (Apera spica-venti); experiment: Test C preemergence, plant response rating
[18] = test system: pigweed, palmer (palmer pigweed, Amaranthus palmeri); experiment: Test C preemergence, plant response rating
[19] = test system: barnyardgrass (Echinochloa crus-galli); experiment: Test C preemergence, plant response rating; settings: Preemergence
[20] = 125 g ai/ha, scale 0 to 100 (0 no effect, 100 complete control)

FC(F)(F)CCCCc1c(Br)cccc1Oc1ncc(Cl)cn1 [Compound 138]
Plant response rating, Field Violet ([1]; 16 g ai/ha, scale of 0 to 100): 90
Plant response rating, Field Violet ([1]; 31 g ai/ha, scale 0 to 100): 95
Field Violet plant response rating ([1]; 62 g ai/ha): 100
Field Violet plant response rating ([1]; 125 g ai/ha): 100
Plant response rating, Field Poppy ([2]; 16 g ai/ha, scale of 0 to 100): 100
Plant response rating, Field Poppy ([2]; 31 g ai/ha, scale 0 to 100): 100
Field Poppy plant response rating ([2]; 62 g ai/ha): 100
Field Poppy plant response rating ([2]; 125 g ai/ha): 100
Plant response rating, Surinam Grass ([3]; 16 g ai/ha, scale of 0 to 100): 20
Plant response rating, Surinam Grass ([3]; 31 g ai/ha, scale 0 to 100): 20
Surinam Grass plant response rating [3, 20]: 35
Plant response rating, Poinsettia, Wild ([4]; 16 g ai/ha, scale of 0 to 100): 30
Plant response rating, Poinsettia, Wild ([4]; 31 g ai/ha, scale 0 to 100): 60
Poinsettia, Wild plant response rating ([4]; 62 g ai/ha): 75
Poinsettia, Wild plant response rating ([4]; 125 g ai/ha): 90
Plant response rating, Nightshade ([5]; 16 g ai/ha, scale of 0 to 100): 75
Plant response rating, Nightshade ([5]; 31 g ai/ha, scale 0 to 100): 80
Nightshade plant response rating ([5]; 62 g ai/ha): 100
Nightshade plant response rating ([5]; 125 g ai/ha): 98
Plant response rating, Pigweed, Palmer ([6]; 16 g ai/ha, scale of 0 to 100): 75
Plant response rating, Pigweed, Palmer ([6]; 31 g ai/ha, scale 0 to 100): 80
Pigweed, Palmer plant response rating ([6]; 62 g ai/ha): 90
Pigweed, Palmer plant response rating ([6]; 125 g ai/ha): 98
Plant response rating, Buckwheat, Wild ([7]; 16 g ai/ha, scale of 0 to 100): 70
Plant response rating, Buckwheat, Wild ([7]; 31 g ai/ha, scale 0 to 100): 80
Buckwheat, Wild plant response rating ([7]; 62 g ai/ha): 100
Buckwheat, Wild plant response rating ([7]; 125 g ai/ha): 100
Plant response rating, Mustard, Wild ([8]; 16 g ai/ha, scale of 0 to 100): 100
Plant response rating, Mustard, Wild ([8]; 31 g ai/ha, scale 0 to 100): 100
Mustard, Wild plant response rating ([8]; 62 g ai/ha): 100
Mustard, Wild plant response rating ([8]; 125 g ai/ha): 100
Plant response rating, Canada Thistle ([9]; 16 g ai/ha, scale of 0 to 100): 80
Plant response rating, Canada Thistle ([9]; 31 g ai/ha, scale 0 to 100): 80
Canada Thistle plant response rating ([9]; 62 g ai/ha): 90
Canada Thistle plant response rating ([9]; 125 g ai/ha): 95
Plant response rating, Geranium, Cutleaf ([10]; 16 g ai/ha, scale of 0 to 100): 30
Plant response rating, Geranium, Cutleaf ([10]; 31 g ai/ha, scale 0 to 100): 35
Geranium, Cutleaf plant response rating ([10]; 62 g ai/ha): 55
Geranium, Cutleaf plant response rating ([10]; 125 g ai/ha): 60
Plant response rating, Speedwell ([11]; 16 g ai/ha, scale of 0 to 100): 95
Plant response rating, Speedwell ([11]; 31 g ai/ha, scale 0 to 100): 100
Speedwell plant response rating ([11]; 62 g ai/ha): 100
Speedwell plant response rating ([11]; 125 g ai/ha): 100
Plant response rating, Windgrass ([12]; 16 g ai/ha, scale of 0 to 100): 0
Plant response rating, Windgrass ([12]; 31 g ai/ha, scale 0 to 100): 15
Windgrass plant response rating [12, 20]: 50
Plant response rating, Johnsongrass ([13]; 16 g ai/ha, scale of 0 to 100): 10
Plant response rating, Johnsongrass ([13]; 31 g ai/ha, scale 0 to 100): 25
Johnsongrass plant response rating ([13]; 62 g ai/ha): 80
Johnsongrass plant response rating ([13]; 125 g ai/ha): 90
Plant response rating, Johnsongrass ([14]; 31 g ai/ha, scale 0 to 100): 0
Plant response rating, Johnsongrass ([14]; 62 g ai/ha, scale 0 to 100): 50
Plant response rating, Johnsongrass ([14]; 125 g ai/ha, scale of 0 to 100): 60
Plant response rating, Poinsettia, Wild ([15]; 31 g ai/ha, scale 0 to 100): 0
Plant response rating, Poinsettia, Wild ([15]; 62 g ai/ha, scale 0 to 100): 5
Plant response rating, Poinsettia, Wild ([15]; 125 g ai/ha, scale of 0 to 100): 50
Plant response rating, Nightshade ([16]; 31 g ai/ha, scale 0 to 100): 50
Plant response rating, Nightshade ([16]; 62 g ai/ha, scale 0 to 100): 80
Plant response rating, Nightshade ([16]; 125 g ai/ha, scale of 0 to 100): 80
Plant response rating, Windgrass ([17]; 31 g ai/ha, scale 0 to 100): 100
Plant response rating, Windgrass ([17]; 62 g ai/ha, scale 0 to 100): 100
Plant response rating, Windgrass ([17]; 125 g ai/ha, scale of 0 to 100): 100
Plant response rating, Pigweed, Palmer ([18]; 31 g ai/ha, scale 0 to 100): 60
Plant response rating, Pigweed, Palmer ([18]; 62 g ai/ha, scale 0 to 100): 100
Plant response rating, Pigweed, Palmer ([18]; 125 g ai/ha, scale of 0 to 100): 100
Plant response rating, Barnyardgrass ([19]; 125 g ai/ha, scale of 0 to 100): 95
Plant response rating, Barnyardgrass ([19]; 16 g ai/ha, scale 0 to 100): 20
Plant response rating, Barnyardgrass ([19]; 31 g ai/ha, scale 0 to 100): 40
Plant response rating, Barnyardgrass ([19]; 62 g ai/ha, scale 0 to 100): 80
